Results: patent US20070238765A1, “Heterocyclic GABAA subtype selective receptor modulators” (Roche Palo Alto LLC, priority 2006, published 2007)
Counter-ions that a name gives are not always drawn.

Legend:
[1] = target: T1, GABAA α1β2γ2 (Homo sapiens, UniProt P14867+P18507+P47870); experiment: 35S-TBPS binding assay, HEK293 membranes with GABAA α1β2γ2 construct; settings: 35S-TBPS 5 nM, GABA 1 μM, 2 hours at room temperature, read-out: α1β2γ2 (35S-TBPS binding, pIC50) (converted)
T1 construct: expressed in transfected cells; host or cells: HEK293
T1 sequence (P14867 28-456): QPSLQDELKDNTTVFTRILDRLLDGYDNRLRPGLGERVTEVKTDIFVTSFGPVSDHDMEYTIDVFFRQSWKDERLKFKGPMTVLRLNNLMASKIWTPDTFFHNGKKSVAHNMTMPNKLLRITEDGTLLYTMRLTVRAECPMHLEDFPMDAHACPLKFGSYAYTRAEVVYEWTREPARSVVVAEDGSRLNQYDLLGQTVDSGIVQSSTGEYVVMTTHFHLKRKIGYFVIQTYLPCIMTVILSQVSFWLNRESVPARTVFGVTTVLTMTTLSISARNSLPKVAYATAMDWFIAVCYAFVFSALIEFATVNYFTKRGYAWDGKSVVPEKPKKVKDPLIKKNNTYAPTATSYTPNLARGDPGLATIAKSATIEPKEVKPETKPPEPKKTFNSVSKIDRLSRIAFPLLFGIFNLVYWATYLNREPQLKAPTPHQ
T1 sequence (P47870 25-512 limits assumed): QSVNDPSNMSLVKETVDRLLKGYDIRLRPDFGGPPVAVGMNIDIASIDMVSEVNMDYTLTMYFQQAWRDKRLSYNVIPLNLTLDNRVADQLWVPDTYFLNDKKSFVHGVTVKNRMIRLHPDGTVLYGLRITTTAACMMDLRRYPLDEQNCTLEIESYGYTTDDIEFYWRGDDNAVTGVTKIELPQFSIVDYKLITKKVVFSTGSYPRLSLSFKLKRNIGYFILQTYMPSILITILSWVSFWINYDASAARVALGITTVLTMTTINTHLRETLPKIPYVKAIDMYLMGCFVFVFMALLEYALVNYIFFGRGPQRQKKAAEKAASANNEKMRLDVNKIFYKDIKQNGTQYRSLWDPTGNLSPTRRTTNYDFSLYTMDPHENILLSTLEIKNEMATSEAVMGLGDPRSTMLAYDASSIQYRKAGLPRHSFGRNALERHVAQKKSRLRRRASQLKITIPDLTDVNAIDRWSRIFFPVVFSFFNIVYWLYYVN
T1 sequence (P18507 40-475): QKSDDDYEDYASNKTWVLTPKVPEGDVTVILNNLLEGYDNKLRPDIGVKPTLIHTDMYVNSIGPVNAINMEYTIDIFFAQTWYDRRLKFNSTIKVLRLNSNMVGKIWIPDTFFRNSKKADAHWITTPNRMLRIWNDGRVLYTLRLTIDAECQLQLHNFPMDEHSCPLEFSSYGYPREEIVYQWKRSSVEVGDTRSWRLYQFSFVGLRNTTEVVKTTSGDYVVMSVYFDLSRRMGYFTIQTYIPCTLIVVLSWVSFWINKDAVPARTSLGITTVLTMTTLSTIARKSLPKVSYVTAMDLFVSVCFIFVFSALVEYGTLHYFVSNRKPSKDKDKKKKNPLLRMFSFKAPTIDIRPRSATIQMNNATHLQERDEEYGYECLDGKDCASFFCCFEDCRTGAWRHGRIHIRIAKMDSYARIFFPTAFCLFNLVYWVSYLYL
Method: (§1) The binding assay is based on the assay reported by K. Gee et al., Eur. J. Pharmacol. 1987, 136, 419-423.
(§2) Homogenate preparation: Membrane preparations of HEK293 cells containing either GABAA α1β2γ2 or GABAA α2β3γ2 constructs were performed according to a modified procedure previously described by Gee et al. (supra). Whole HEK 293 cells in D-PBS (calcium/magnesium free) buffer adjusted to pH 7.4 were centrifuged at 7,280×g for 20 m. After discarding the supernatant, the pellet was resuspended in the buffer and centrifuged at 1,820×g for 10 m. Afterwards, the supernatant was discarded and the pellet resuspended in ice-cold preparation buffer (50 mM Tris HCl pH 7.4, 4° C. and 150 mM KCl), homogenized for 30 sec using a Brinkmann Polytron PT3000 (setting 6) and centrifuged at 48,000×g for 30 m at 4° C. The centrifugation and homogenization procedure was repeated two more times for a total of 3 times before resuspending the membranes at a final protein concentration of 0.5 mg/mL. Aliquots (30 mL) of the final membrane preparation were then centrifuged at 48,000×g for 30 m, and the resulting pellets were stored at −80° C. until required.
(§3) 35S-TBPS binding assay. Membrane pellets containing either GABAA α1β2γ2 or GABAA α2β3γ2 constructs were thawed on ice, resuspended in 10 mL of 50 mM Tris HCl pH7.4, 4° C. and 150 mM KCl and centrifuged at 48,000×g, 30 m at 4° C. After discarding the supernatant, the pellet was resuspended in 30 mL incubation buffer (50 mM Tris HCl pH 7.4, 25° C. and 150 mM KCl) at approximately 0.5 mg/mL protein concentration. In 35S-TBPS competition studies, HEK293 membranes were incubated with 35S-TBPS (5 nM final) and GABA (1 μM) in the absence or presence of competitor at concentrations ranging from 0.01 nM to 10 μM in 125 μL incubation buffer for 2 hours at room temperature (˜22° C.). Non-specific binding was assayed with picrotoxin (100 μM final concentration). The binding reaction was terminated by vacuum filtration through GF/B filters previously soaked in 0.1% polyethylenimine followed by 3×1 mL washes with ice cold wash buffer (50 mM Tris HCl pH7.4, 4° C. and 150 mM KCl). Measurement of bound radioactivity was performed using a Packard Microplate 96 well topcount scintillation counter. Analysis of competition curves and estimation of pIC50 values of test compounds were performed using the software programs ActivityBase and/or Prism (version 3.0).

[2] = target: T2, GABAA α2β3γ2 (Homo sapiens, UniProt P18507+P28472+P47869); experiment: 35S-TBPS binding assay, HEK293 membranes with GABAA α2β3γ2 construct; settings: 35S-TBPS 5 nM, GABA 1 μM, 2 hours at room temperature, read-out: α2β3γ2 (35S-TBPS binding, pIC50) (converted)
T2 construct: expressed in transfected cells; host or cells: HEK293
T2 sequence (P47869 29-451): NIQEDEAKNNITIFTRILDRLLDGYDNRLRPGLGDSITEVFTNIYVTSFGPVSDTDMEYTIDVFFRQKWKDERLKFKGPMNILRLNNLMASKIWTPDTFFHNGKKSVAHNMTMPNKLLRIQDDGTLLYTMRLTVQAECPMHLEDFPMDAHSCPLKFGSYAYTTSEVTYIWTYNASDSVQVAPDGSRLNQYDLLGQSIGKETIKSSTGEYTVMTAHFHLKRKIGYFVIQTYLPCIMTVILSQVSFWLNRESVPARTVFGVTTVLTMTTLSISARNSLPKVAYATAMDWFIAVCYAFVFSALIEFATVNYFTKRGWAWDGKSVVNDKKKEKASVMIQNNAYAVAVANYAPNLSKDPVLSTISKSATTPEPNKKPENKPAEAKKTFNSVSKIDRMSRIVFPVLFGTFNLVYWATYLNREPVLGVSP
T2 sequence (P28472 26-473): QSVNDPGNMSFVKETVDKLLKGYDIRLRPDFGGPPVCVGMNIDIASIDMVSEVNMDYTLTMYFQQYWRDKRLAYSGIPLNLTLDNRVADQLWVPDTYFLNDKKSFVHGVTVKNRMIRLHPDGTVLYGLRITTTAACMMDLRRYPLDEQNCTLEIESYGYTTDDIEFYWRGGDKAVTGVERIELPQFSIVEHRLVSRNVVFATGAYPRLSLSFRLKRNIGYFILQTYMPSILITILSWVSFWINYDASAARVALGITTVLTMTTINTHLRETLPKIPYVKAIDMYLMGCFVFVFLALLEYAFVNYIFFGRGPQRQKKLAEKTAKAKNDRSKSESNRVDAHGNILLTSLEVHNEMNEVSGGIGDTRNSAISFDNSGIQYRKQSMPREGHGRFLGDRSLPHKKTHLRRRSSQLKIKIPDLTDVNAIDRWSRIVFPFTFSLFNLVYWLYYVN
T2 sequence (P18507 40-475): as the sequence (P18507 40-475) above
Method: as §1, §2, §3

SMILES	IC50 [1] [nM]	IC50 [2] [nM]	melting point [°C]
CCOC(=O)Cc1nnnn1Cc1c2cccc(-c3ccc(Cl)cc3Cl)c2nn1C [I-7, {1-[7-(2,4-Dichloro-phenyl)-2-meth-yl-2H-indazol-3-yl-methyl]-1H-tetrazol-5-yl}-aceticacid ethyl ester]	> 10000	2690	–
Cn1nc2c(-c3ccc(Cl)cc3Cl)cccc2c1Cc1nnnn1CS(C)(=O)=O [I-9, 7-(2,4-Dichloro-phenyl)-3-(1-meth-anesulfonylmethyl-1H-tetra-zol-5-ylmethyl)-2-meth-yl-2H-indazole]	> 10000	> 10000	–
COC(=O)c1cncn1Cc1c2cccc(-c3ccc(Cl)cc3Cl)c2nn1C [I-13, 3-[7-(2,4-Dichloro-phenyl)-2-meth-yl-2H-indazol-3-yl-methyl]-3H-imidazole-4-carboxy-lic acid methyl ester]	–	912	–
CCOC(=O)c1nccn1Cc1c2cccc(-c3ccc(Cl)cc3Cl)c2nn1C [I-14, 1-[7-(2,4-Dichloro-phenyl)-2-meth-yl-2H-indazol-3-yl-methyl]-1H-imidazole-2-carboxy-lic acid ethyl ester]	4790	832	–
Cn1nc2c(-c3ccc(Cl)cc3Cl)cccc2c1Cn1ccnn1 [I-16, 7-(2,4-Dichloro-phenyl)-2-meth-yl-3-[1,2,3]triazol-1-yl-methyl-2H-indazole]	5890	1200	–
Cn1nc2c(-c3ccc(Cl)cc3Cl)cccc2c1Cn1nccn1 [I-17, 7-(2,4-Dichloro-phenyl)-2-meth-yl-3-[1,2,3]triazol-2-yl-methyl-2H-indazole]	> 10000	427	–
COCn1ncnc1C(=O)c1c2cccc(-c3ccc(Cl)cc3Cl)c2nn1C [I-19, [7-(2,4-Dichloro-phenyl)-2-meth-yl-2H-indazol-3-yl]-(2-meth-oxymethyl-2H-[1,2,4]tri-azol-3-yl)-meth-anone]	> 10000	1620	–
Cn1nc2c(-c3ccc(Cl)cc3Cl)cccc2c1Cc1ncc[nH]1 [I-21, 7-(2,4-Dichloro-phenyl)-3-(1H-imi-dazol-2-ylmethyl)-2-meth-yl-2H-indazole]	3550	550	–
Cn1nc2c(-c3ccc(Cl)cc3Cl)cccc2c1C(=O)c1nccn1CCO [I-24, [7-(2,4-Dichloro-phenyl)-2-meth-yl-2H-indazol-3-yl]-[1-(2-hydroxy-ethyl)-1H-imi-dazol-2-yl]-methanone]	3720	214	–
Cn1nc2c(-c3ccc(Cl)cc3Cl)cccc2c1Cc1cnc[nH]1 [I-25, 7-(2,4-Dichloro-phenyl)-3-(3H-imi-dazol-4-ylmethyl)-2-meth-yl-2H-indazole]	> 10000	1150	–
CCOC(c1cnc[nH]1)c1c2cccc(-c3ccc(Cl)cc3Cl)c2nn1C (stereo not drawn) [I-26, 7-(2,4-Dichloro-phenyl)-3-[eth-oxy-(3H-imidazol-4-yl)-meth-yl]-2-methyl-2H-inda-zole]	6170	513	–
Cn1nc2c(-c3ccc(Cl)cc3Cl)cccc2c1C(O)c1cnc[nH]1 (stereo not drawn) [I-27, [7-(2,4-Dichloro-phenyl)-2-meth-yl-2H-indazol-3-yl]-(3H-imi-dazol-4-yl)-methanol]	2340	550	–
Cn1nc2c(-c3ccc(Cl)cc3Cl)cccc2c1C(O)c1ncc[nH]1 (stereo not drawn) [I-28, [7-(2,4-Dichloro-phenyl)-2-meth-yl-2H-indazol-3-yl]-(1H-imi-dazol-2-yl)-methanol]	575	148	–
Cn1nc2c(-c3ccc(Cl)cc3Cl)cccc2c1CC1=NCCN1 [I-29, 7-(2,4-Dichloro-phenyl)-3-(4,5-di-hydro-1H-imidazol-2-yl-methyl)-2-methyl-2H-inda-zole]	> 10000	> 10000	–
Cn1nc2c(-c3ccc(Cl)cc3Cl)cccc2c1C(=O)c1ncc[nH]1 [I-30, [7-(2,4-Dichloro-phenyl)-2-meth-yl-2H-indazol-3-yl]-(1H-imi-dazol-2-yl)-meth-anone]	4470	166	–
Cn1nnnc1C(O)c1c2cccc(-c3ccc(Cl)cc3Cl)c2nn1C (stereo not drawn) [I-32, [7-(2,4-Dichloro-phenyl)-2-meth-yl-2H-indazol-3-yl]-(meth-yl-1H-tetrazol-5-yl)-meth-anol]	5890	398	–
CN(C)S(=O)(=O)n1ccnc1C(O)c1c2cccc(-c3ccc(Cl)cc3Cl)c2nn1C (stereo not drawn) [I-35, 2-{[7-(2,4-Dichloro-phenyl)-2-meth-yl-2H-indazol-3-yl]-hydroxy-methyl}-imidazole-1-sulfonicacid dimethyl-amide]	> 10000	–	–
Cn1nc2c(-c3ccc(Cl)cc3Cl)cccc2c1-c1cnc[nH]1 [I-36, 7-(2,4-Dichloro-phenyl)-3-(3H-imi-dazol-4-yl)-2-meth-yl-2H-indazolehydrochloride]	7240	145	–
Cn1nc2c(-c3ccc(Cl)cc3Cl)cccc2c1Cn1cccn1 [I-37, 7-(2,4-Dichloro-phenyl)-2-meth-yl-3-pyrazol-1-yl-methyl-2H-indazole]	2750	380	–
Cn1nc2c(-c3ccc(Cl)cc3Cl)cccc2c1Cn1ccnc1 [I-40, 7-(2,4-Dichloro-phenyl)-3-imi-dazol-1-ylmethyl-2-meth-yl-2H-indazole]	4070	1150	–
Cn1nc2c(-c3ccc(Cl)cc3Cl)cccc2c1Cn1cncn1 [I-42, 7-(2,4-Dichloro-phenyl)-2-meth-yl-3-[1,2,4]triazol-1-yl-methyl-2H-indazole]	5010	603	–
Cn1nc2c(-c3ccc(Cl)cc3Cl)cccc2c1Cn1cnnn1 [I-43, 7-(2,4-Dichloro-phenyl)-2-meth-yl-3-tetrazol-1-yl-methyl-2H-indazole]	8910	832	–
Cn1nc2c(-c3ccc(Cl)cc3Cl)cccc2c1N1C(=O)CCC1=O [I-44, 1-[7-(2,4-Dichloro-phenyl)-2-meth-yl-2H-indazol-3-yl]-pyr-rolidine-2,5-dione]	> 10000	3630	–
Cn1nc2c(-c3ccc(Cl)cc3Cl)cccc2c1-c1ncc[nH]1 [I-45, 7-(2,4-Dichloro-phenyl)-3-(1H-imi-dazol-2-yl)-2-meth-yl-2H-indazole]	5620	537	–
Cn1nc2c(-c3ccc(Cl)cc3Cl)cccc2c1Cn1ncnn1 [I-49, 7-(2,4-Dichloro-phenyl)-2-meth-yl-3-tetrazol-2-yl-methyl-2H-indazole]	2240	372	–
Cn1nnc(-c2c3cccc(-c4ccc(Cl)cc4Cl)c3nn2C)n1 [I-52, 7-(2,4-Dichloro-phenyl)-2-meth-yl-3-(2-methyl-2H-tetra-zol-5-yl)-2H-indazole]	3630	141	–
Cn1nc2c(-c3ccc(Cl)cc3Cl)cccc2c1-c1nnn[nH]1 [I-54, 7-(2,4-Dichloro-phenyl)-2-meth-yl-3-(1H-tetrazol-5-yl)-2H-inda-zole]	2950	692	–
CCOC(=O)Cc1ncn(Cc2c3cccc(-c4ccc(Cl)cc4Cl)c3nn2C)n1 [I-58, {1-[7-(2,4-Dichloro-phenyl)-2-meth-yl-2H-indazol-3-yl-methyl]-1H-[1,2,4]triazol-3-yl}-aceticacid ethyl ester]	–	–	80.8 to 84
CCOC(=O)Cc1ncnn1Cc1c2cccc(-c3ccc(Cl)cc3Cl)c2nn1C [I-59, {2-[7-(2,4-Dichloro-phenyl)-2-meth-yl-2H-indazol-3-yl-methyl]-2H-[1,2,4]triazol-3-yl}-aceticacid ethyl ester]	–	–	167.9 to 168.9
